Source: patent US20110118276A1, “METHODS OF TREATING ATHEROSCLEROSIS” (priority 2008, published 2011)
“Also recorded” adds a separate entry of the source.

Columns and labels:
Type in all cases: cell-based, human
IL-8 = IL-8 secretion by foam cells, ELISA; settings: for block of adenosine-induced IL-8 increase: antagonist 100 nM
Experimental: (§1) U937 cells were induced to differentiate into macrophages by treatment with phorbol myristate acetate (PMA, 40 nM) for 72 h. Before use oxLDL was dialyzed against 1 L of 0.15 M sodium chloride and 0.3 mM EDTA (pH 7.4) for 12 h at 4° C., then against RPMI 1640 medium (two changes, 1 L/each change) for 24 h. All dialyses were carried out with Pierce Slide-A-Lyzer cassettes (10,000 molecular weight cut-off). After dialysis, lipoproteins were sterilized by passing them through a 0.45 μm (pore-size) filter, then added (50-100 μg/mL, Intracel, Frederick, Md.) to PMA-treated U937 cells and incubated in serum-free RPMI 1640 for 48 h.
(§2) The levels of VEGF and IL-8 protein secreted by the cells in the medium were determined by VEGF and IL-8 ELISA kits (R&D Systems) according to the manufacturer's instructions. The data were presented as mean±SD from three independent experiments.

HIF-1α protein = HIF-1α protein accumulation, western blot; settings: foam cells; for antagonism of adenosine induced HIF-1α protein accumulation: antagonist 100 nM, adenosine 100 μM, hypoxia
Experimental: Hypoxic exposures were done in a modular incubator chamber and flushed with a gas mixture containing 1% O2, 5% CO2 and balance N2 (MiniGalaxy, RSBiotech, Irvine, Scotland).
U937 cells were induced to differentiate into macrophages by treatment with phorbol myristate acetate (PMA, 40 nM) for 72 h. […] All dialyses were carried out with Pierce Slide-A-Lyzer cassettes (10,000 molecular weight cut-off).
Whole cell lysates were prepared as described previously (27). […] In experiments aimed to detect HIF, western blot analyses were performed using antibody against HIF-1α (1:250 dilution) and […] (1:1000 dilution) in 5% non-fat dry milk in PBS/0.1°)/0 Tween-20 overnight at 4° C. The protein concentration was determined using BCA protein assay kit (Pierce, Rockford, Ill.). Tubulin (1:250) was used to ensure equal protein loading. Immunoreactivity was assessed and quantified by using a VersaDoc Imaging System (Bio-Rad).

PMA-treated U937 cells = test: Foam cell formation, Oil red O stain analysis; settings: oxLDL 50 μg/mL, adenosine 100 μM, 24 h
Experimental: as §1
Treatment of PMA-differentiated U937 cells with test agents was performed 2 h before addition of oxLDL. After exposition to oxLDL under hypoxia for 24 h, U937 cells were fixed in phosphate buffered saline-buffered 4% paraformaldehyde solution for 15 min and then air dried. Oil red O (in 60% isopropanol) staining was done for 15 min essentially as described previously by Kalayoglu and Byrne (Infect. Immun. 1998, 66, 5067-5072). Cells were viewed under a bright-field microscope in 100× fields using a Nikon's Eclipse E800 microscope. Foam cells were defined as macrophages in which cytoplasm was filled with Oil red O-stainable lipid droplets.

VEGF = VEGF secretion by foam cells, ELISA; settings: adenosine 100 μM, 24 h, hypoxic; for effect on adenosine-induced VEGF increase: antagonist 100 nM, U937 derived foam cells
Experimental: as §1, §2

[1] = adenosine 100 μM, U937 derived foam cells, hypoxic

SMILES | block of adenosine-induced IL-8 increase (IL-8; [1]) | effect on adenosine-induced VEGF increase (VEGF) | antagonism of adenosine induced HIF-1α protein accumulation (HIF-1α protein) | also measured
CCNC(=O)[C@H]1O[C@@H](n2cnc3c(Nc4ccc(OCC(=O)Nc5ccccc5)cc4)ncnc32)[C@H](O)[C@@H]1O [1-deoxy-1-[6-{4-[(phenylcarbamoyl)-methoxy]phenylamino}-9H-purin-9-yl]-N-ethyl-β-D-ribofuranuronamide] | – | – | – | IL-8 secretion (IL-8; A2B receptor agonist 1 μM): 142±8 % of IL-8 secretion; EC50 (IL-8; Homo sapiens, U-937, dose-response curve, U937 derived foam cells, hypoxic, read-out: EC50 for stimulation of IL-8 secretion): 58 ± 6 nM; induction of HIF-1α protein by adenosine receptor agonists (HIF-1α protein; CHA 10, 100 nM, CGS 21680 500, 1000 nM, A2B agonist 10, 100 nM, CI-IB-MECA 10, 100 nM): able to induce HIF-1α protein
CCCn1c(=O)c2[nH]c(C3CCCC3)nc2n(CCC)c1=O [DPCPX, 1,3-dipropyl-8-cyclopentylxanthine] | not | – | – | –
CCCn1c(=O)c2nc(-c3cc(OCC(=O)Nc4ccc5c(c4)OCO5)nn3C)[nH]c2n(CCC)c1=O [MRE-2029F20, N-1,3-benzodioxol-5-yl-2-{[5-(2,6-dioxo-1,3-dipropyl-2,3,6,9-tetrahydro-1H-purin-8-yl)-1-methyl-1H-pyrazol-3-yl]oxy}acetamide] | blocked | strongly reduced | partially antagonized | effect on oxLDL and adenosine induced foam cells formation (Oil red O) (PMA-treated U937 cells; antagonist 100 nM): blocked the foam cells formation; also recorded: inhibition of foam cell formation; block of the effect of the A2B receptor agonist (1 μM) on IL-8 secretion (IL-8; U937 derived foam cells): completely blocked
CCCn1cc2c(nc(NC(=O)Nc3ccc(OC)cc3)n3nc(-c4ccco4)nc23)n1 [MRE-3008F20, 5-N-(4-methoxyphenyl-carbamoyl)amino-8-propyl-2-(2furyl)-pyrazolo-[4,3e]-1,2,4-triazolo[1,5-c]pyrimidine] | not | strongly reduced | partially antagonized | effect on oxLDL and adenosine induced foam cells formation (Oil red O) (PMA-treated U937 cells; antagonist 100 nM): blocked the foam cells formation; also recorded: inhibition of foam cell formation
Nc1nc2c(cnn2CCc2ccccc2)c2nc(-c3ccco3)nn12 [SCH 58261] | not | inhibited to lesser extent | partially antagonized | –
COc1ccccc1NC(=O)Nc1nc(-c2cccnc2)nc2ccccc12 [VUF 5574] | – | – | – | effect on oxLDL and adenosine induced foam cells formation (Oil red O) (PMA-treated U937 cells; antagonist 10 nM): blocked the foam cells formation; also recorded: inhibition of foam cell formation
Nc1ncnc2c1ncn2[C@@H]1O[C@H](CO)[C@@H](O)[C@H]1O [adenosine] | – | – | – | effect on oxLDL-induced foam cell formation (Oil red O) (PMA-treated U937 cells): increased; increase of VEGF levels (VEGF; supernatant of U937 derived foam cells): 165±10%; increase of IL-8 levels (IL-8; adenosine 100 μM, supernatant of U937 derived foam cells, hypoxic): 158±10%
